Data taken from patent US20260315446A1, “ANTIFUNGAL COMPOUNDS AND USES THEREOF” (priority 2023, published 2026).
In brackets after ≈: the same amount, converted by molar mass. Like-named read-outs stand apart in the source and are kept apart here.

Key:
[1] = system: C. neoformans growth versus IL-2 in murine T cells; assay: Therapeutic index score (immunosuppressive fold change to antifungal fold change relative to FK506); design: species or system Cryptococcus neoformans; mouse; details: Example 3; C. neoformans H99, FK506 = 1.0
From the text: To assess the therapeutic potential for these compounds, it was important to develop an approach to score and rank them based on antifungal and immunosuppressive activities. The therapeutic index score (TIscore) is a ratio of the immunosuppressive fold change to the antifungal fold change, with all values relative to the baseline FK506 activity (FIG. 6B). A TIscore of >1.0 indicates an increase in fungal specificity because the fold change of the immunosuppressive reduction is greater than the antifungal activity reduction. As an example, JH-FK-05 is 20-fold reduced for antifungal activity but about 180-fold reduced for immunosuppression. Therefore, the TIscore of JH-FK-05 is 9.1 (TIscore=182/20). The top two analogs were JH-FK-02 (TIscore=9.7) and JH-FK-05 (TIscore=9.1). Due to the similar TIscore, JH-FK-05 was prioritized to advance to animal trials on the merit of more pronounced antifungal activity compared to JH-FK-02.
Based on the in vitro fungal and mammalian calcineurin inhibition data, the panel of FK520 analogs was assessed and ranked. Therapeutic index (TI) scores were used to quantify the effects of structural modification on the compounds (Table 8). Therapeutic index scores were calculated for each analog as the ratio of relative change in immunosuppressive and antifungal activities compared to FK506 as previously utilized (see, I-Toy M J, et at. 2022. mBio 13:e0104922). This ratio of therapeutic benefit and host toxicity, or fungal and mammalian calcineurin inhibition, allowed us to quantify and rank these analogs. […] This is the greatest TI found within the library and allowed us to identify JH-FK-08 as a lead candidate for an in vivo study. Tolerability of JH-FK-08 was assessed by monitoring animal responses to drug dosing across 14 days, including changes in weight, fur condition, and behavior. A maximum dose of 40 mg/kg was tested in once a day dosing, and due to solubility limitations, the tolerability of JH-FK-08 at 60 and 80 mg/kg total daily doses was assessed by dosing two equal doses per day (FIG. 14). […] It should be noted that analogs JH-FK-12 and JH-FK-23 are also promising candidates with respective Tis of 24.7 and 24.5.

Candida albicans = assay: MIC assay (Example 3); assay type: cell-based; details: Candida albicans
Description: (§1) In vitro antifungal activity was assessed for all fungal strains in RPMI 1640 (Sigma-Aldrich R1383). MICs were measured using Clinical and Laboratory Standards Institute (CLSI) M38-A2 and M27-A3 standard in vitro antifungal susceptibility protocols. C. neoformans and A. fumigatus testing was performed at 37° C. MECs for A. fumigatus were recorded after 48 h of growth. C. albicans testing was performed at 30° C. with a uniform concentration of 2 μg/mL of fluconazole to sensitize the cells to calcineurin inhibition.
(§2) C. neoformans clinical isolate H99 and congenic-derived strain KN99α were used (see, Nielsen K, et al., 2003. Infect Immun 71:4831-4841). KN99α-derived frr1Δ deletion mutants with nourseothricin resistance markers as part of the Madhani deletion collection (NIH funding R01AI100272) were used. C. deneoformans strains used include JEC21 and derived C21F2 (CNB1-1) and C21F3 (frr1-3) strains (see, Odom A, et al., 1997. EMBO J 16:2576-2589; Moore T D, Edman J C. 1993. Mol Cell Biol 13:1962-1970; Fox D S, et al., 2001. Mol Microbiol 39:835-849). C. albicans strain SC5314 is the wild-type strain from which mutants YAG171 (rbp1/rbp1) and YAG237 (CNB1-1/CNB1) were derived (see, Cruz M C, et al., 2001. Antimicrob Agents Chemother 45:3162-3170). A. fumigatus strain akuB^Ku80 and a derived FKBP12 mutant fkbp12A were used during antifungal screening (see, Falloon K, et al., 2015. PLoS One 10:e0137869).

Cryptococcus neoformans = assay: MIC assay (Example 3); assay type: cell-based; details: Cryptococcus neoformans
Description: as §1, §2

[2] = system: IL-2 expression in primary mouse CD4+ T cells (mammalian calcineurin); assay: In vitro immunosuppressive activity, IL-2 expression (Example 3); assay type: cell-based; details: 72 h
Description: Modifications at the C-22 position reduce inhibition of mammalian calcineurin signaling Mammalian calcineurin inhibition was then assessed and found to be reduced for these FK520 analogs. The inhibition of mammalian calcineurin was assessed by measuring the reduction of IL-2 expression from primary mouse CD4^+ T cells cultured in the presence of FK506, FK520, or an analog. Calcineurin activity is required for T cell activation and cytokine production, and IL-2 production serves as an effective measure of mammalian calcineurin activity. After culturing mouse CD4′ T cells for 72 h, IL-2 expression was analyzed by flow cytometry to evaluate the immunosuppressive activity of the analogs. […] However, compound concentrations that permit high IL-2 expression are less likely to result in cell death.
Spleen and lymph nodes from C57BL/6 mice were collected and homogenized through a 40-μm filter. Pan-CD4^+ T cells were enriched using the MagniSort Mouse CD4 T Cell Enrichment Kit (Invitrogen). Thereafter, CD4^+CD25^−CD62L^hiCD44^lo naïve CD4^+ T cells were FACS-sorted using a MoFlo Astrios cell sorter (Beckman Coulter). Naïve CD4^+ T cells were cultured in Iscove's Modified Dulbecco's Medium supplemented with 10% fetal bovine serum (FBS), penicillin (10 U/mL), streptomycin (10 μg/mL), glutamine (2 mM), gentamicin (50 μg/mL), and β-mercaptoethanol (55 μM). Cells were cultured for 72 h on anti-hamster IgG-coated plates with hamster anti-CD3s antibodies, hamster anti-CD28 antibodies, neutralizing anti-IL-4 antibodies, recombinant IL-12 (10 ng/mL), and recombinant IL-2 (50 U/mL). During this culture, cells were incubated with serially diluted drugs suspended in DMSO.

Aspergillus fumigatus = assay: MEC assay (Example 3); details: strain akuB^Ku80
[3] = SC5314, MIC80, 30° C. with 2 μg/mL fluconazole, read-out: MIC against Candida albicans (SC5314)
[4] = MIC90, 37° C., read-out: MIC against Cryptococcus neoformans (H99)
[5] = SC5314, read-out: MIC against Candida albicans (SC5314)
[6] = read-out: MIC against Cryptococcus neoformans (H99)

CC[C@@H]1/C=C(\C)C[C@H](C)C[C@H](OC)[C@H]2O[C@@](O)(C(=O)C(=O)N3CCCC[C@H]3C(=O)O[C@H](/C(C)=C/C3CC[C@@H](O)[C@H](OC)C3)[C@H](C)[C@@H](O)C/C1=N/NC(=O)c1ccncc1)[C@H](C)C[C@@H]2OC (stereo partly drawn) [JH-FK-09]
Therapeutic index [1]: 7.8
MIC (Candida albicans; [3]): 0.8 µg/mL (≈ 0.878 µM)
MIC (Cryptococcus neoformans; [4]): 0.8 µg/mL (≈ 0.878 µM)
MIC (Cryptococcus neoformans; Table 8, read-out: H99 MIC90): 0.8 µg/mL (≈ 0.878 µM)
IC50 [2]: 11.2 nM
MEC against Aspergillus fumigatus (akuB^Ku80) (Aspergillus fumigatus): 1.3 µg/mL

CCN/N=C1/C[C@H](O)[C@@H](C)[C@@H](/C(C)=C/C2CC[C@@H](O)[C@H](OC)C2)OC(=O)[C@@H]2CCCCN2C(=O)C(=O)[C@]2(O)O[C@H]([C@@H](OC)C[C@@H](C)C/C(C)=C/[C@H]1CC)[C@@H](OC)C[C@H]2C (stereo partly drawn) [JH-FK-16]
Therapeutic index [1]: 8.2
MIC (Cryptococcus neoformans; Table 8, read-out: H99 MIC90): 0.4 µg/mL (≈ 0.48 µM)
IC50 [2]: 5.9 nM

CC[C@@H]1/C=C(\C)C[C@H](C)C[C@H](OC)[C@H]2O[C@@](O)(C(=O)C(=O)N3CCCC[C@H]3C(=O)O[C@H](/C(C)=C/C3CC[C@@H](O)[C@H](OC)C3)[C@H](C)[C@@H](O)C/C1=N/NC(=O)NN)[C@H](C)C[C@@H]2OC (stereo partly drawn) [JH-FK-21]
Therapeutic index [1]: 18.9
MIC (Cryptococcus neoformans; Table 8, read-out: H99 MIC90): 1.6 µg/mL (≈ 1.85 µM)
IC50 [2]: 54.5 nM

CC[C@@H]1/C=C(\C)C[C@H](C)C[C@H](OC)[C@H]2O[C@@](O)(C(=O)C(=O)N3CCCC[C@H]3C(=O)O[C@H](/C(C)=C/C3CC[C@@H](O)[C@H](OC)C3)[C@H](C)[C@@H](O)C/C1=N/NC(=O)c1ccc(N)cc1)[C@H](C)C[C@@H]2OC (stereo partly drawn) [JH-FK-20]
Therapeutic index [1]: 12.3
MIC (Candida albicans; [3]): 0.8 µg/mL (≈ 0.865 µM)
MIC (Cryptococcus neoformans; [4]): 0.8 µg/mL (≈ 0.865 µM)
MIC (Cryptococcus neoformans; Table 8, read-out: H99 MIC90): 0.8 µg/mL (≈ 0.865 µM)
IC50 [2]: 17.8 nM
MEC against Aspergillus fumigatus (akuB^Ku80) (Aspergillus fumigatus): 0.6 µg/mL

CC[C@@H]1/C=C(\C)C[C@H](C)C[C@H](OC)[C@H]2O[C@@](O)(C(=O)C(=O)N3CCCC[C@H]3C(=O)O[C@H](/C(C)=C/C3CC[C@@H](O)[C@H](OC)C3)[C@H](C)[C@@H](O)C/C1=N/NC(=O)c1cccc(C(=O)NN)c1)[C@H](C)C[C@@H]2OC (stereo partly drawn) [JH-FK-14]
Therapeutic index [1]: 4.9
MIC (Candida albicans; [3]): 0.8 µg/mL (≈ 0.826 µM)
MIC (Cryptococcus neoformans; [4]): 1.6 µg/mL (≈ 1.65 µM)
MIC (Cryptococcus neoformans; Table 8, read-out: H99 MIC90): 1.6 µg/mL (≈ 1.65 µM)
IC50 [2]: 14 nM
MEC against Aspergillus fumigatus (akuB^Ku80) (Aspergillus fumigatus): 0.6 µg/mL

CC[C@@H]1/C=C(\C)C[C@H](C)C[C@H](OC)[C@H]2O[C@@](O)(C(=O)C(=O)N3CCCC[C@H]3C(=O)O[C@H](/C(C)=C/[C@@H]3CC[C@@H](O)[C@H](OC)C3)[C@H](C)[C@@H](O)CC1=NNC(=O)NN)[C@H](C)C[C@@H]2OC [JH-FK-21]
MIC (Candida albicans; [5]): 0.8 µg/mL (≈ 0.926 µM)
MIC (Cryptococcus neoformans; [6]): 1.6 µg/mL (≈ 1.85 µM)
MEC against Aspergillus fumigatus (akuB^Ku80) (Aspergillus fumigatus): 2.5 µg/mL

CC[C@@H]1/C=C(\C)C[C@H](C)C[C@H](OC)[C@H]2O[C@@](O)(C(=O)C(=O)N3CCCC[C@H]3C(=O)O[C@H](/C(C)=C/C3CC[C@@H](O)[C@H](OC)C3)[C@H](C)[C@@H](O)C/C1=N/NS(C)(=O)=O)[C@H](C)C[C@@H]2OC (stereo partly drawn) [JH-FK-23]
Therapeutic index [1]: 24.5
MIC (Candida albicans; [3]): 1.6 µg/mL (≈ 1.81 µM)
MIC (Cryptococcus neoformans; [4]): 1.6 µg/mL (≈ 1.81 µM)
MIC (Cryptococcus neoformans; Table 8, read-out: H99 MIC90): 1.6 µg/mL (≈ 1.81 µM)
IC50 [2]: 70.5 nM
MEC against Aspergillus fumigatus (akuB^Ku80) (Aspergillus fumigatus): 5 µg/mL

CC[C@@H]1/C=C(\C)C[C@H](C)C[C@H](OC)[C@H]2O[C@@](O)(C(=O)C(=O)N3CCCC[C@H]3C(=O)O[C@H](/C(C)=C/C3CC[C@@H](O)[C@H](OC)C3)[C@H](C)[C@@H](O)C/C1=N/NC(=O)CO)[C@H](C)C[C@@H]2OC (stereo partly drawn) [JH-FK-22]
Therapeutic index [1]: 15.6
MIC (Cryptococcus neoformans; Table 8, read-out: H99 MIC90): 1.6 µg/mL (≈ 1.85 µM)
IC50 [2]: 45 nM

CC[C@@H]1/C=C(\C)C[C@H](C)C[C@H](OC)[C@H]2O[C@@](O)(C(=O)C(=O)N3CCCC[C@H]3C(=O)O[C@H](/C(C)=C/C3CC[C@@H](O)[C@H](OC)C3)[C@H](C)[C@@H](O)C/C1=N/NC(N)=O)[C@H](C)C[C@@H]2OC (stereo partly drawn) [JH-FK-12]
Therapeutic index [1]: 24.7
MIC (Candida albicans; [3]): 0.8 µg/mL (≈ 0.942 µM)
MIC (Cryptococcus neoformans; [4]): 0.8 µg/mL (≈ 0.942 µM)
MIC (Cryptococcus neoformans; Table 8, read-out: H99 MIC90): 0.8 µg/mL (≈ 0.942 µM)
IC50 [2]: 35.6 nM
MEC against Aspergillus fumigatus (akuB^Ku80) (Aspergillus fumigatus): 2.5 µg/mL

CC[C@@H]1/C=C(\C)C[C@H](C)C[C@H](OC)[C@H]2O[C@@](O)(C(=O)C(=O)N3CCCC[C@H]3C(=O)O[C@H](/C(C)=C/[C@@H]3CC[C@@H](O)[C@H](OC)C3)[C@H](C)[C@@H](O)CC1=NNC(=O)CO)[C@H](C)C[C@@H]2OC [JH-FK-22]
MIC (Candida albicans; [5]): 1.6 µg/mL (≈ 1.85 µM)
MIC (Cryptococcus neoformans; [6]): 1.6 µg/mL (≈ 1.85 µM)
MEC against Aspergillus fumigatus (akuB^Ku80) (Aspergillus fumigatus): 2.5 µg/mL

CC[C@@H]1/C=C(\C)C[C@H](C)C[C@H](OC)[C@H]2O[C@@](O)(C(=O)C(=O)N3CCCC[C@H]3C(=O)O[C@H](/C(C)=C/[C@@H]3CC[C@@H](O)[C@H](OC)C3)[C@H](C)[C@@H](O)CC1=NNS(=O)(=O)c1ccc(C)cc1)[C@H](C)C[C@@H]2OC [JH-FK-13]
MIC (Candida albicans; [5]): > 50 µg/mL
MIC (Cryptococcus neoformans; [6]): > 50 µg/mL
MEC against Aspergillus fumigatus (akuB^Ku80) (Aspergillus fumigatus): >10 µg/mL

CCNN=C1C[C@H](O)[C@@H](C)[C@@H](/C(C)=C/[C@@H]2CC[C@@H](O)[C@H](OC)C2)OC(=O)[C@@H]2CCCCN2C(=O)C(=O)[C@]2(O)O[C@H]([C@@H](OC)C[C@@H](C)C/C(C)=C/[C@H]1CC)[C@@H](OC)C[C@H]2C [JH-FK-16]
MIC (Candida albicans; [5]): 0.4 µg/mL (≈ 0.48 µM)
MIC (Cryptococcus neoformans; [6]): 0.4 µg/mL (≈ 0.48 µM)
MEC against Aspergillus fumigatus (akuB^Ku80) (Aspergillus fumigatus): 1.3 µg/mL
